Species on record: Rattus norvegicus
Assay: Percent control measured by evaluating the inhibition of 3 nM [125I]PhTX-343-lysine binding to glutamate receptors in rat cortical membranes
Format: cell membranes
Design: scale not given: the % may be the effect or the level left
Conditions: Membrane
Work on `NCC(=O)O` yielded an Activity of 109%. For `CNC(CCC(=O)O)C(=O)O` (stereo unspecified), the Activity was 96%. For `N[C@@H](Cn1oc(=O)[nH]c1=O)C(=O)O`, the Activity was 104%. Work on `CCCC(=O)N[C@@H](Cc1ccc(O)cc1)C(=O)NCCCCNCCCNCCCN` yielded an Activity of 32.7%. With `NC(CCCP(=O)(O)O)C(=O)O` (stereo unspecified) the Activity was 94%. `C=C(C)[C@H]1CN[C@H](C(=O)O)[C@H]1CC(=O)O` gave an Activity of 103%. `O=[N+]([O-])c1cc2nc(O)c(O)nc2cc1[N+](=O)[O-]` was tested, and the Activity was 102%. `c1ccc(C2(N3CCCCC3)CCCCC2)cc1` was tested, and the Activity was 81%. With `C[C@]12N[C@H](Cc3ccccc31)c1ccccc12` the Activity was 92%. `NCCCNCCCCNCCCN` was tested, and the Activity was 14.4%. `N[C@@H](CCC(=O)O)C(=O)O` gave an Activity of 99%.

Reference: ChEMBL document CHEMBL1125606, “Synthesis and binding of [125I2]philanthotoxin-343, [125I2]philanthotoxin-343-lysine, and [125I2]philanthotoxin-343-arginine to rat brain membranes” (J Med Chem, 1991)
